“Also recorded” adds a separate entry of the source.
Test system: acetylated tubulin
Experiment: Measurement of acetylated tubulin in spleen after oral administration (Western blotting)
Type: in vivo
Conditions: BALE/c mice, female, 30 mg/kg orally
Description: Compound A (compound of Example 36) and compound B (compound of Example 37) were each orally administered to BALE/c mice (female, Charles River Japan, 8-weeks old when used) at a dose of 30 mg/kg. Compound A and compound B were each suspended in 0.5% methyl cellulose solution, and the suspensions were each orally administered at a dose of 10 mL/kg. For control group, 0.5% methyl cellulose solution was administered. After administration, a part (about 30 mg) of the spleen was recovered into tube containing beads (Lysing Matrix I, Cat. 6918-100, MP Biomedicals), and cryopreserved at −80° C. until used.
0.5 mL RIPA buffer containing protease inhibitor (Cat. 25955-11, Nacalai tesque) was added to the spleen placed in Lysing Matrix I tube, and the spleen was crushed over 20 sec by FastPrep-24. The sample tube was centrifuged (15,000 rpm, 4° C.,) for 5 min, and the supernatant was transferred to another tube. […] The protein amount of the sample was measured using BCA protein assay kit (Cat. 23227, Pierce). […]
The membrane was immersed in blocking reagent (Cat. NYPBR01, TOYOBO) at room temperature for 1 hr, washed, and reacted with primary antibody overnight at 4° C. After washed, the membrane was reacted with secondary antibody at room temperature for 1 hr, and immersed in ECL prime detecting solution (Cat. RPN2232, GE), and the chemiluminescence was detected by luminoimage analyzer LAS3000. […]

## O=C(NC[C@H]1COCCN1C(=O)c1cc(Cl)cc(Cl)c1)c1ccc(-c2noc(C(F)(F)F)n2)cc1 [compound B, N-(((3S)-4-(3,5-dichlorobenzoyl)morpholin-3-yl)methyl)-4-(5-(trifluoromethyl)-1,2,4-oxadiazol-3-yl)benzamide]
  acetylation of tubulin in spleen (protein expression level of acetylated tubulin, fold increase relative to 0.5% methyl cellulose solution administration group): increase in acetylated tubulin; also recorded: increased most acetylation of tubulin in spleen 8 hr after administration

## O=C(NC[C@H]1COCCN1C(=O)c1ccccc1)c1ccc(-c2noc(C(F)(F)F)n2)cc1 [compound A, N-(((3S)-4-benzoylmorpholin-3-yl)methyl)-4-(5-(trifluoromethyl)-1,2,4-oxadiazol-3-yl)benzamide]
  acetylation of tubulin in spleen (protein expression level of acetylated tubulin, fold increase relative to 0.5% methyl cellulose solution administration group): increase in acetylated tubulin; also recorded: increased most acetylation of tubulin in spleen 8 hr after administration

Reference: patent US10081624B2, “Heterocyclic compound” (Takeda Pharmaceutical Company Limited, priority 2014, dated 2018)
